Source: US11578061B2, “Inhibitors of LRRK2 kinase” (Halia Therapeutics, Inc., priority 2021, dated 2023)
pIC50: −log10 of the molar value.

Biological target: recombinant human LRRK2 (catalytic domain only [amino acids 970-2527], GST-tagged) (Homo sapiens (Human), UniProt Q5S007)
Assay: LRRK2 Enzymatic Assay
Format: biochemical
Conditions: LRRKtide substrate, [32P]-ATP
Outline: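 GST-tagged catalytic domain (aa 970-2527) at 30 nM with 20 μM LRRKtide in HEPES pH 7.5/MgCl2 buffer, 1% DMSO; compounds (10 μM to 0.5 nM) preincubated 20 min, then [32P]-ATP added for 2 h at room temperature. P81 phosphocellulose capture; activity as % of vehicle, IC50 by curve fit.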

recombinant human LRRK2 (catalytic domain only [amino acids 970-2527], GST-tagged), sequence (Q5S007 970-2527): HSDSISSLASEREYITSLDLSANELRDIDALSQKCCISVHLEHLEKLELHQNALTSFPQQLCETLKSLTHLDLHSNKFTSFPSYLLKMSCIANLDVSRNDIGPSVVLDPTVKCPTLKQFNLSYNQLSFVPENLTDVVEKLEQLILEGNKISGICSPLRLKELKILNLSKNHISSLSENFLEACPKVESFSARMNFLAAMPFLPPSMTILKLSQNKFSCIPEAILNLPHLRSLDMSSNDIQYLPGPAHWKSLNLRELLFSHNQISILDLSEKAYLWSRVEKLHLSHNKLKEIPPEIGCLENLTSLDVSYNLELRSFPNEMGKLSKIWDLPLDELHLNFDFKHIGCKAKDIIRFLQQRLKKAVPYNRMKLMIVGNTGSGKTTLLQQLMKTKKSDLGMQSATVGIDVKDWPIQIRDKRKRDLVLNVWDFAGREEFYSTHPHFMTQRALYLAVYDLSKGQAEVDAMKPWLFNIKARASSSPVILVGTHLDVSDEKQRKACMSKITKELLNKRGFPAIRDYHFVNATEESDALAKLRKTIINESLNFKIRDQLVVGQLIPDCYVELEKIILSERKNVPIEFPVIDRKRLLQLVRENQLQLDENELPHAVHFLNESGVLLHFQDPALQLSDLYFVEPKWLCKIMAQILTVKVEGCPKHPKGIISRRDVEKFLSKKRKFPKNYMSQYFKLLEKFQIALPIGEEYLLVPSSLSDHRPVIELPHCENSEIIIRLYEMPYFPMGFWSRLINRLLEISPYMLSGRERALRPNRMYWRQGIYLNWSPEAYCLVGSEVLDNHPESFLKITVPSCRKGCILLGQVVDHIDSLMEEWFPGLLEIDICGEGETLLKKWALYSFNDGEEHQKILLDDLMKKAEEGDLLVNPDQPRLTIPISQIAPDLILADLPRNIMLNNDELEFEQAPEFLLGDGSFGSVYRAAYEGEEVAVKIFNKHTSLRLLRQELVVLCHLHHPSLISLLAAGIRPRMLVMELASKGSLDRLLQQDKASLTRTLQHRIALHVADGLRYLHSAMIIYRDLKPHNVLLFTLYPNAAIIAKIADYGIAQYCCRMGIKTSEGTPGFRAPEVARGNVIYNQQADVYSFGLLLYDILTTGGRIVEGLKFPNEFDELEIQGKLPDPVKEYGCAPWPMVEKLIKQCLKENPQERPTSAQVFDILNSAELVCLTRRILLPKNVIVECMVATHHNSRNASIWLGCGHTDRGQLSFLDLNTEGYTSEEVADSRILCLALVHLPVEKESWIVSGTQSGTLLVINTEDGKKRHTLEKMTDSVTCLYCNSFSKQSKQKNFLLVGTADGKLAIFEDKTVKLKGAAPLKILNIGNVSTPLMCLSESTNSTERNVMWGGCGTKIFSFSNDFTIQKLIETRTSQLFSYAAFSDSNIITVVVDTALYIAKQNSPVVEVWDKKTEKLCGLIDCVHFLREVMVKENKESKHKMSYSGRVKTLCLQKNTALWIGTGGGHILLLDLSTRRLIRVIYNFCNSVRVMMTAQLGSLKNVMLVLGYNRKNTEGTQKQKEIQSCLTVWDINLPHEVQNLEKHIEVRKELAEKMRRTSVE

SMILES | pIC50
COc1nn(C(C)C)cc1Nc1ncc(F)c(OC[C@H]2CC[C@H](O)CC2)n1 [Example 244, (1R,4R)-4-(((5-fluoro-2-((1-isopropyl-3-methoxy-1H-pyrazol-4-yl)amino)pyrimidin-4-yl)oxy)methyl)cyclohexan-1-ol] | < 6.40
COc1nn(C2CC2)cc1Nc1ncc(F)c(OC[C@H]2CC[C@H](O)CC2)n1 [Example 245, (1R,4R)-4-(((2-((1-cyclopropyl-3-methoxy-1H-pyrazol-4-yl)amino)-5-fluoropyrimidin-4-yl)oxy)methyl)cyclohexan-1-ol] | 6.40 to 6.70
O[C@H]1CC[C@H](COc2nc(Nc3ccc(N4CCOCC4)cc3)nc(Cl)c2F)CC1 [Example 246, (1R,4R)-4-(((6-chloro-5-fluoro-2-((4-morpholinophenyl)amino)pyrimidin-4-yl)oxy)methyl)cyclohexan-1-ol] | < 6.40
C[C@@H]1CN(c2ccc(Nc3nc(Cl)c(F)c(OC[C@H]4CC[C@H](O)CC4)n3)cc2)C[C@H](C)O1 [Example 247, (1R,4R)-4-(((6-chloro-2-((4-((2S,6R)-2,6-dimethylmorpholino)phenyl)amino)-5-fluoropyrimidin-4-yl)oxy)methyl)cyclohexan-1-ol] | < 6.40
Cc1nn(C(C)(C)C#N)cc1Nc1nc(Cl)c(F)c(OC[C@H]2CC[C@H](O)CC2)n1 [Example 248, 2-(4-((4-chloro-5-fluoro-6-(((1R,4R)-4-hydroxycyclohexyl)methoxy)pyrimidin-2-yl)amino)-3-methyl-1H-pyrazol-1-yl)-2-methylpropanenitrile] | < 6.40
C[C@@H]1CN(c2ccc(Nc3ncc(F)c(OC[C@@H]4CCC[C@@H](O)C4)n3)cc2)C[C@H](C)O1 [Example 249, (1R,3R)-3-(((2-((4-((2S,6R)-2,6-dimethylmorpholino)phenyl)amino)-5-fluoropyrimidin-4-yl)oxy)methyl)cyclohexan-1-ol] | > 7.30
Cc1nn(C(C)(C)C#N)cc1Nc1ncc(F)c(OC[C@@H]2CCC[C@@H](O)C2)n1 [Example 250, 2-(4-((5-fluoro-4-(((1R,3R)-3-hydroxycyclohexyl)methoxy)pyrimidin-2-yl)amino)-3-methyl-1H-pyrazol-1-yl)-2-methylpropanenitrile] | > 7.30
CC1(O)CCC(COc2nc(Nc3ccc(N4CCOCC4)cc3)ncc2F)CC1 (stereo not drawn) [Example 251, 4-(((5-fluoro-2-((4-morpholinophenyl)amino)pyrimidin-4-yl)oxy)methyl)-1-methylcyclohexan-1-ol] | 6.70 to 7.30
C[C@@H]1CN(c2ccc(Nc3ncc(F)c(OCC4CCC(C)(O)CC4)n3)cc2)C[C@H](C)O1 (stereo partly drawn) [Example 252, 4-(((2-((4-((2S,6R)-2,6-dimethylmorpholino)phenyl)amino)-5-fluoropyrimidin-4-yl)oxy)methyl)-1-methylcyclohexan-1-ol] | > 7.30
Cc1nn(C(C)(C)C#N)cc1Nc1ncc(F)c(OCC2CCC(C)(O)CC2)n1 (stereo not drawn) [Example 253, 2-(4-((5-fluoro-4-((4-hydroxy-4-methylcyclohexyl)methoxy)pyrimidin-2-yl)amino)-3-methyl-1H-pyrazol-1-yl)-2-methylpropanenitrile] | > 7.30
CC(C)(O)[C@H]1CC[C@H](COc2nc(Nc3ccc(N4C5CCC4COC5)cc3)ncc2F)CC1 [Example 254, 2-((1S,4S)-4-(((2-((4-(3-oxa-8-azabicyclo[3.2.1]octan-8-yl)phenyl)amino)-5-fluoropyrimidin-4-yl)oxy)methyl)cyclohexyl)propan-2-ol] | 6.70 to 7.30
CC(C)n1cc(Nc2ncc(F)c(OC[C@H]3CC[C@H](C(C)(C)O)CC3)n2)cn1 [Example 255, 2-((1R,4R)-4-(((5-fluoro-2-((1-isopropyl-1H-pyrazol-4-yl)amino)pyrimidin-4-yl)oxy)methyl)cyclohexyl)propan-2-ol] | 6.70 to 7.30
CC(C)n1cc(Nc2ncc(F)c(OCC34CCC(O)(CC3)CC4)n2)cn1 [Example 256, 4-(((5-fluoro-2-((1-isopropyl-1H-pyrazol-4-yl)amino)pyrimidin-4-yl)oxy)methyl)bicyclo[2.2.2]octan-1-ol] | > 7.30
Cc1nn(C(C)(C)C#N)cc1Nc1ncc(F)c(OCC23CCC(O)(CC2)CC3)n1 [Example 257, 2-(4-((5-fluoro-4-((4-hydroxybicyclo[2.2.2]octan-1-yl)methoxy)pyrimidin-2-yl)amino)-3-methyl-1H-pyrazol-1-yl)-2-methylpropanenitrile] | 6.70 to 7.30
O[C@@H]1CC[C@H](COc2nc(Nc3ccc(N4CCOCC4)cc3)ncc2F)C[C@H]1F [Example 258, (1R,2R,4S)-2-fluoro-4-(((5-fluoro-2-((4-morpholinophenyl)amino)pyrimidin-4-yl)oxy)methyl)cyclohexan-1-ol] | 6.70 to 7.30
Cc1nn(C(C)(C)C#N)cc1Nc1ncc(F)c(OC[C@H]2CC[C@@H](O)[C@H](F)C2)n1 [Example 259] | > 7.30
OC1(C(F)(F)F)CCC(COc2nc(Nc3ccc(N4CCOCC4)cc3)ncc2F)CC1 (stereo not drawn) [Example 260, 4-(((5-fluoro-2-((4-morpholinophenyl)amino)pyrimidin-4-yl)oxy)methyl)-1-(trifluoromethyl)cyclohexan-1-ol] | 6.70 to 7.30
C[C@@H]1CN(c2ccc(Nc3ncc(F)c(OCC4CCC(O)(C(F)(F)F)CC4)n3)cc2)C[C@H](C)O1 (stereo partly drawn) [Example 261, 4-(((2-((4-((2S,6R)-2,6-dimethylmorpholino)phenyl)amino)-5-fluoropyrimidin-4-yl)oxy)methyl)-1-(trifluoromethyl)cyclohexan-1-ol] | 6.70 to 7.30
Cc1nn(C(C)(C)C#N)cc1Nc1ncc(F)c(OCC2CCC(O)(C(F)(F)F)CC2)n1 (stereo not drawn) [Example 262, 2-(4-((5-fluoro-4-((4-hydroxy-4-(trifluoromethyl)cyclohexyl)methoxy)pyrimidin-2-yl)amino)-3-methyl-1H-pyrazol-1-yl)-2-methylpropanenitrile] | 6.70 to 7.30
Cc1nc(Nc2ccc(N3CCOCC3)cc2)nc(OC[C@H]2CC[C@H](O)CC2)c1F [Example 265, (1R,4R)-4-(((5-fluoro-6-methyl-2-((4-morpholinophenyl)amino)pyrimidin-4-yl)oxy)methyl)cyclohexan-1-ol] | < 6.40
Cc1nc(Nc2ccc(N3C[C@@H](C)O[C@@H](C)C3)cc2)nc(OC[C@H]2CC[C@H](O)CC2)c1F [Example 266, (1R,4R)-4-(((2-((4-((2S,6R)-2,6-dimethylmorpholino)phenyl)amino)-5-fluoro-6-methylpyrimidin-4-yl)oxy)methyl)cyclohexan-1-ol] | < 6.40
Cc1nn(C(C)(C)C#N)cc1Nc1nc(C)c(F)c(OC[C@H]2CC[C@H](O)CC2)n1 [Example 267, 2-(4-((5-fluoro-4-(((1R,4R)-4-hydroxycyclohexyl)methoxy)-6-methylpyrimidin-2-yl)amino)-3-methyl-1H-pyrazol-1-yl)-2-methylpropanenitrile] | < 6.40
Fc1cnc(Nc2ccc(N3CCOCC3)cc2)nc1OCC1CCC(F)(F)CC1 [Example 268, 4-((4,4-difluorocyclohexyl)methoxy)-5-fluoro-N-(4-morpholinophenyl)pyrimidin-2-amine] | 6.70 to 7.30
C[C@@H]1CN(c2ccc(Nc3ncc(F)c(OCC4CCC(F)(F)CC4)n3)cc2)C[C@H](C)O1 [Example 269, 4-((4,4-difluorocyclohexyl)methoxy)-N-(4-((2R,6S)-2,6-dimethylmorpholino)phenyl)-5-fluoropyrimidin-2-amine] | 6.40 to 6.70
